The target in one test is CDK5 complexed with p25 (Homo sapiens, UniProt Q00535). Description: Cyclin dependent kinase activity assay, phosphorylation of synthetic peptide PKTPKKAKKLRRR
The test is classed as biochemical. Particulars: CDK5 complexed with p25, 0.1 mM ATP; read-out: CDK 5 Activity*. The protocol:
(§1) The assay of cyclin dependent kinase activity was determined by monitoring the phosphorylation of a synthetic peptide, PKTPKKAKKLRRR. The assay mixture contained 0.1 mM cold ATP, ^33P-γ-ATP (2000-4000 cpm/μL), 0.1 mM peptide, 1 mM DTT, and 10 mM MgCl2 in 100 mM HEPES buffer pH 7.4. The assay mixture, along with inhibitor and CDK enzyme (0.3-0.4 U/mL; either CDK5 complexed with p25, CDK2 complexed with complexed with cyclin A), was mixed together in a microtiter plate in a final volume of 40 μL, sealed and incubated for 2 hours at 30° C. Following incubation, a 15 μL aliquot was added to a Whatman P81 filtration plate containing 100 μL 0.5% phosphoric acid. This mixture was allowed to stand for 5 minutes prior to filtration on a vacuum manifold. The filter plate was washed with 5 successive additions of 300 μL 0.5% phosphoric acid. The filtration plate was air dried for 10 minutes before sealing the bottom. After addition of scintillation fluid to the sealed plate, phosphorylated peptide was quantified in a scintillation counter.

For test [1], the target named is CDK2 complexed with cyclin A (Homo sapiens, UniProt P24941). The test is described as above. In kind it is biochemical. Particulars: 0.1 mM ATP, read-out: CDK 2 Activity*. The protocol:
as §1

pIC50: −log10 of the molar value. Counter-ions that a name gives are not always drawn.

CDK5 complexed with p25, sequence (Q00535 whole entry): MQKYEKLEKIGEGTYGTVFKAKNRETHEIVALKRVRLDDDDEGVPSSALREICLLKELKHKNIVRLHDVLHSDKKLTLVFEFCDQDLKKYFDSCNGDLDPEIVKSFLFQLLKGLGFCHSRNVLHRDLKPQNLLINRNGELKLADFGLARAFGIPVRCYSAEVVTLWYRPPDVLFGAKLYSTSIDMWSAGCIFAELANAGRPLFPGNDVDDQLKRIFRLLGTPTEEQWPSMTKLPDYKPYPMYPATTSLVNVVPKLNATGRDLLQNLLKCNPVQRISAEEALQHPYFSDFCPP
CDK5 complexed with p25, sequence (Q15078 99-307 partner limits assumed): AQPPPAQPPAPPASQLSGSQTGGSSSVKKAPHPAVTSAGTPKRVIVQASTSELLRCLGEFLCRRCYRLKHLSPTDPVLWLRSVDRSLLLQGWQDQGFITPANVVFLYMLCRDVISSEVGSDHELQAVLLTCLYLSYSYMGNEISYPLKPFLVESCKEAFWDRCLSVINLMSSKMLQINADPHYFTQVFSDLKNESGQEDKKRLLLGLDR

Consider `NC(=S)N/N=C/c1cc(-c2ccc(F)cc2)ccc1O` [Example 16, 5-(4-Fluorophenyl)salicylaldehyde thiosemicarbazone], for which the pIC50 was 5.70 to 6.30 at CDK5 complexed with p25 and 5.30 to 5.70 in test [1].

On to `Nc1cc(-c2cc(-c3ccc(O)cc3)ccc2O)nc(N)n1` [Example 52, 3-(2,6-Diamino-pyrimidin-4-yl)-biphenyl-4,4′-diol], for which the pIC50 (at CDK5 complexed with p25; in test [1]) was more than 6.30 each time.

For the compound `COc1cc(-c2cc(-c3ccc(O)cc3)ccc2O)nc(N)n1` [Example 50, 3-(2-Amino-6-methoxy-pyrimidin-4-yl)-biphenyl-4,4′-diol], the pIC50 (at CDK5 complexed with p25; in test [1]) was more than 6.30 each time.

Consider `NC(=S)N/N=C/c1cc(-c2ccc(C(=O)O)cc2)ccc1O` [Example 19, 5-(4-Carboxyphenyl)salicylaldehyde thiosemicarbazone], for which the pIC50 was more than 6.30 at CDK5 complexed with p25 and less than 5.30 in test [1].

Consider `Nc1nccc(-c2ccc(O)c(-c3cc(Cl)nc(N)n3)c2)n1` [Example 73, 2-(2-Amino-4-chloro-pyrimidin-6-yl)-4-(2-aminopyrimidin-4-yl)-phenol], for which the pIC50 in test [1] is more than 6.30.

As for `NC(=S)N/N=C/c1cc(-c2cccc(O)c2)ccc1O` [Example 20, 5-(3-Hydroxyphenyl)salicylaldehyde thiosemicarbazone], the pIC50 on CDK5 complexed with p25 is more than 6.30; in test [1], 5.70 to 6.30.

As to `Nc1nccc(-c2cc(-c3c[nH]c(=O)[nH]c3=O)ccc2O)n1` [Example 70, 5-[3-(2-Amino-pyrimidin-4-yl)-4-hydroxy-phenyl]-1 H-pyrimidine-2.4-dione], the pIC50 is 5.30 to 5.70 at CDK5 complexed with p25 and less than 5.30 in test [1].

For the compound `NC(=O)N/N=C/c1cc(Br)ccc1O` [Example 3, 5-Bromosalicylaldehyde semicarbazone hydrochloride], the pIC50 on CDK5 complexed with p25 is 5.70 to 6.30; in test [1], 5.30 to 5.70.

For `NC(=O)N/N=C/c1c(O)ccc2ccccc12` [Example 41, 2-[(2-Hydroxy-1-naphthyl)methylidene]hydrazine-1-carbamide hydrochloride], the pIC50 (at CDK5 complexed with p25; in test [1]) was more than 6.30 each time.

`Nc1nccc(-c2cc(-c3cccnc3)ccc2O)n1` [Example 63, 2-(2-Amino-pyrimidin-4-yl)-4-pyridin-3-yl-phenol]: the results for the pIC50 (on CDK5 complexed with p25; in test [1]) were more than 6.30 and less than 5.30, respectively.

In the case of `NC(=O)N/N=C/c1cc(-c2cccc(CO)c2)ccc1O` [Example 9, 5-(3-Hydroxymethylphenyl)salicylaldehyde semicarbazone hydrochloride], the values for the pIC50 (on CDK5 complexed with p25; in test [1]) were 5.70 to 6.30 and 5.30 to 5.70, respectively.

Turning to `COC(=O)/C=C/c1ccc(O)c(/C=N/NC(N)=S)c1` [Example 37, Methyl (3-formyl-4-hydroxy)cinnamate, thiosemicarbazone], the results for the pIC50 (on CDK5 complexed with p25; in test [1]) were 5.70 to 6.30 and less than 5.30, respectively.

`COC(=O)c1cccc(-c2ccc(O)c(/C=N/NC(N)=O)c2)c1` [Example 13, 5-(3-Methoxycarbonylphenyl)salicylaldehyde semicarbazone hydrochloride]: the pIC50 is less than 5.30 at CDK5 complexed with p25 and 5.30 to 5.70 in test [1].

Regarding `NC(=S)N/N=C/c1cc(-c2ccc(Cl)s2)ccc1O` [Example 35, 5-[2-(5-Chloro-thienyl)]salicylaldehyde thiosemicarbazone], the pIC50 was less than 5.30 on CDK5 complexed with p25 and 5.70 to 6.30 in test [1].

For `Nc1nccc(-c2cc(-c3ccncc3)ccc2O)n1` [Example 62, 2-(2-Amino-pyrimidin-4-yl)-4-pyridin-4-yl-phenol], the pIC50 (on CDK5 complexed with p25; in test [1]) was more than 6.30 each time.

On to `NC(=S)N/N=C/c1cc(/C=C/C(=O)O)ccc1O` [Example 38, 3-Formyl-4-hydroxycinnamic acid, thiosemicarbazone], for which the pIC50 (at CDK5 complexed with p25; in test [1]) was more than 6.30 throughout.

With `Nc1nc(-c2cc(-c3ccc(O)cc3)ccc2O)cc(N2CCCC2CO)n1` (stereo not drawn) [Example 79, 3-[2-Amino-6-(2R-hydroxymethyl-pyrrolidin-1-yl)-pyrimidin-4-yl]-biphenyl-4.4′-diol], the pIC50 in test [1] is more than 6.30.

With `Nc1nc(NCC(O)CO)cc(-c2cc(-c3ccc(O)cc3)ccc2O)n1` (stereo not shown) [Example 56, 3-[2-Amino-6-(2,3-dihydroxy-propylamino)-pyrmidin-4-yl]-biphenyl-4,4′-diol], the pIC50 (on CDK5 complexed with p25; in test [1]) was more than 6.30 in each case.

With `NC(=S)N/N=C/c1cc(-c2ccncc2)ccc1O` [Example 30, 5-(4-Pyridyl)salicylaldehyde thiosemicarbazone], the pIC50 at CDK5 complexed with p25 was more than 6.30; in test [1], 5.30 to 5.70.

With `Nc1nc(NCCO)cc(-c2cc(-c3ccc(O)cc3)ccc2O)n1` [Example 55, 3-[2-Amino-6-(2-hydroxy-ethylamino)-pyrimidin-4-yl]-biphenyl-4,4′-diol], the pIC50 (at CDK5 complexed with p25; in test [1]) was more than 6.30 in each case.

As for `NC(=S)N/N=C/c1cc(-c2cccc(F)c2)ccc1O` [Example 15, 5-(3-Fluorophenyl)salicylaldehyde thiosemicarbazone], the pIC50 (at CDK5 complexed with p25; in test [1]) was 5.70 to 6.30 each time.

Consider `NC(=S)N/N=C/c1cc(-c2ccc(O)cc2O)ccc1O` [Example 27, 5-(2,4-Dihydroxyphenyl)salicylaldehyde thiosemicarbazone], for which the pIC50 (at CDK5 complexed with p25; in test [1]) was more than 6.30 in each case.

With `Nc1cnc(-c2cc(-c3ccc(O)cc3)ccc2O)nc1N` [Example 51, 3-(4,5-Diamino-pyrimidin-2-yl)-biphenyl-4,4′-diol], the pIC50 (on CDK5 complexed with p25; in test [1]) was more than 6.30 each time.

As for `NC(=S)N/N=C/c1cc(-c2ccccc2)ccc1O` [Example 4, 5-Phenylsalicylaldehyde thiosemicarbazone], the pIC50 on CDK5 complexed with p25 is more than 6.30; in test [1] it was 5.70 to 6.30.

As for `NC(=S)N/N=C/c1cc(-c2ccc([N+](=O)[O-])cc2)ccc1O` [Example 11, 5-(4-Nitrophenyl)salicylaldehyde thiosemicarbazone], the pIC50 at CDK5 complexed with p25 was 5.30 to 5.70; in test [1], less than 5.30.

Regarding `NC(=S)N/N=C/c1cc(-c2ccc(O)cc2)ccc1O` [Example 21, 5-(4-Hydroxyphenyl)salicylaldehyde thiosemicarbazone], the pIC50 (at CDK5 complexed with p25; in test [1]) was more than 6.30 in each case.

Turning to `NC(=S)N/N=C/c1cc(-c2ccc(O)cc2)c(O)cc1O` [Example 28, 4-Hydroxy-5-(4-hydroxyphenyl)salicylaldehyde thiosemicarbazone], the results for the pIC50 (on CDK5 complexed with p25; in test [1]) were 5.30 to 5.70 and 5.70 to 6.30, respectively.

With `Nc1nc(-c2cc(-c3ccc(O)cc3)ccc2O)cc(N2CCCC(CO)C2)n1` (stereo not shown) [Example 82, 3-[2-Amino-6-(3-hydroxymethyl-piperidin-1-yl)-pyrimidin-4-yl]-biphenyl-4,4′-diol], the pIC50 (at CDK5 complexed with p25; in test [1]) was more than 6.30 throughout.

In the case of `NC(=S)N/N=C/c1cc(-c2cncnc2)ccc1O` [Example 32, 5-(5-Pyrimidyl)salicylaldehyde thiosemicarbazone], the pIC50 (on CDK5 complexed with p25; in test [1]) was 5.30 to 5.70 in each case.

As to `NC(=S)N/N=C/c1cc2ccc(O)cc2cc1O` [Example 43], the pIC50 (on CDK5 complexed with p25; in test [1]) was more than 6.30 throughout.

`Nc1ccc(-c2cc(-c3ccc(O)cc3)ccc2O)nc1` [Example 48, 3-(5-Amino-pyridin-2-yl)-biphenyl-4,4′-diol]: the pIC50 (on CDK5 complexed with p25; in test [1]) was more than 6.30 each time.

As for `Nc1nccc(-c2cc(-c3ccc[nH]3)ccc2O)n1` [Example 69, 2-(2-Amino-pyrimidin-4-yl)-4-(1H-pyrrol-2-yl)-phenol], the pIC50 (on CDK5 complexed with p25; in test [1]) was more than 6.30 each time.

On to `Nc1nc(-c2cc(-c3ccc(O)cc3)ccc2O)cc(N2CCNCC2)n1` [Example 78, 3-(2-Amino-6-piperazin-1-yl-pyrimidin-4-yl)-biphenyl-4,4′-diol], for which the values for the pIC50 (at CDK5 complexed with p25; in test [1]) were more than 6.30 and less than 5.30, respectively.

For the compound `COC(=O)c1cccc(-c2ccc(O)c(/C=N/NC(N)=S)c2)c1` [Example 12, 5-(3-Methoxycarbonylphenyl)salicylaldehyde thiosemicarbazone], the pIC50 at CDK5 complexed with p25 was 5.70 to 6.30; in test [1], less than 5.30.

With `Nc1nccc(-c2cc(-c3ccc(O)c(F)c3)ccc2O)n1` [Example 53, 3-(2-Amino-pyrimidin-4-yl)-3′-fluoro-biphenyl-4,4′-diol], the pIC50 (at CDK5 complexed with p25; in test [1]) was more than 6.30 in each case.

As for `N#Cc1cccc(-c2ccc(O)c(/C=N/NC(N)=S)c2)c1` [Example 7, 5-(3-Cyanophenyl)salicylaldehyde thiosemicarbazone], the pIC50 on CDK5 complexed with p25 is 5.30 to 5.70; in test [1], less than 5.30.

`NC(=S)N/N=C/c1cc(-c2ccsc2)ccc1O` [Example 34, 5-(3-Thienyl)salicylaldehyde thiosemicarbazone]: the pIC50 was 5.70 to 6.30 at CDK5 complexed with p25 and more than 6.30 in test [1].

In the case of `NC(=S)N/N=C/c1cc(Br)ccc1O` [Example 2, 5-Bromosalicylaldehyde thiosemicarbazone], the values for the pIC50 (at CDK5 complexed with p25; in test [1]) were 5.70 to 6.30 and 5.30 to 5.70, respectively.

For the compound `Nc1cc(-c2cc(-c3ccnc(N)n3)ccc2O)nc(N)n1` [Example 74, 2-(2,4-Diamino-pyrimidin-6-yl)-4-(2-aminopyrimidin-4-yl)-phenol], in test [1], the pIC50 was more than 6.30.

In the case of `Cc1cc(-c2cc(-c3ccnc(N)n3)ccc2O)nc(N)n1` [Example 72], the pIC50 in test [1] was more than 6.30.

The values above are taken from patent publication US20030187007A1, “Inhibitors of protein kinase for the treatment of disease” (priority 2001, published 2003).
